melting point [°C]	SMILES
159 to 162	Cc1ccccc1-n1c(=O)nc(N(C)C)n(C)c1=O
86 to 87	CCCC(=O)c1cc(-c2ccc(C)cc2)no1
251 to 252	COc1ccccc1Cc1cccc(-c2ncc3c(n2)CC(C)(C)CC3)n1
248 to 249	COc1cc2c(cc1Br)-c1c(-c3cccs3)c3c(n1CC2)C(=O)N(C(C)C)CCN(C(=O)C(C)C)C3
60 to 64.5	COc1ccc2c(c1)c(Cc1cc(=O)n(-c3cccc(C(F)(F)F)c3)[nH]1)c(C)n2C(=O)c1ccccc1
135 to 138	C[C@H](Nc1ncnc2[nH]cnc12)c1oc2ccccc2c(=O)c1-c1cccc(F)c1
73 to 75	COC(=O)[C@H](c1ccccc1Cl)N1CCc2sc(OC(C)=O)cc2C1
60.1 to 62.1	COC(=O)[C@H](C)NC(=O)C(=O)Nc1ccccc1C(C)(C)C
107 to 108	CC1c2cc([Si](C)(C)C)ccc2-c2ccc([Si](C)(C)C)cc21
> 250	O=[N+]([O-])c1cccc(-c2nc(Nc3cccc(Cl)c3)c3cc[nH]c3n2)c1
228 to 234	COc1ccc(N2C(=O)N(c3ccc(OC)cc3)C(C)c3cnc(Nc4ccccc4)nc32)cc1 (centres undefined)
177	Cc1ncc([N+](=O)[O-])n1CCN1C(=O)c2ccccc2C1=O
80 to 82	COC(=O)CNC(=O)c1cncc(F)c1
214 to 215	CC(C)C(=O)Nc1c(N)cc(Br)cc1OCc1ccccc1
182	O=C(OC(c1ccccc1)c1ccccc1)C(=O)N1C(=O)[C@@H]2N=C(c3ccccc3)O[C@@H]21
223 to 225	CCOC(=O)c1cn(C23CC(C2)C3)c2cc(Cl)c(F)cc2c1=O
103 to 104	Fc1ccccc1-c1ncn(CCCCN2CCOCC2)c1-c1ccncc1
151 to 152	CCOC(=O)C[C@@H]1CCCC[C@H]1n1nc(-c2c(-c3ccccc3)nn3ccccc23)ccc1=O (relative stereo)
151 to 152	CCOC(=O)c1cn(C)nc1NCc1ccc(-c2ccccc2C#N)cc1
159 to 161	COc1ccc(-c2cc(C(F)F)nn2-c2ccc(S(N)(=O)=O)cc2)cc1F
103 to 106	CCCc1c(OCCCOc2cc(OCC(=O)OC)ccc2C(C)=O)ccc(C(C)=O)c1O
64 to 66	CC(C)c1ccc(NN)c(Cl)c1
153 to 154	O=C(NC1=NCCCC1)Nc1ccccc1
103 to 105	COc1ccc(C(O)c2ccc(OC)c(OCc3ccccc3)c2)cc1OCc1ccccc1
163 to 164	CC(=O)c1ccc(Cn2c3c(c4cc(F)cc(F)c42)CCCC3CC(=O)O)cc1 (centres undefined)

melting point [°C]	SMILES
160	CC(C)CN1N=C2C=NC(c3ccccc3)=CN2C1CC(=O)O (centres undefined)
250	OCCOc1cc(O)ccc1-c1nc2cnccc2[nH]1
187 to 189	Cc1nc(N2CCN(CC3CC3)C2=O)sc1C(=O)NCc1cccnn1
162 to 164	Cc1[nH]ccc(=O)c1OCc1ccccc1
> 300	O=C(O)c1ccc(-c2nc(-c3ccccn3)cs2)cc1
233 to 235	Cc1cccc(-c2[nH]c(C(C)C)nc2-c2ccc(F)c(-c3c[nH]nn3)c2)n1
284 to 289	N#Cc1ccc(-c2cc3ccccc3[nH]c2=S)cc1
140 to 142	N#CCSc1nc(NCc2ccc3c(c2)OCO3)cc(-c2ccccc2)n1
222 to 223	Cc1cc(-c2nc3cccnn3c2-c2ccnc(NC(=O)NC3CC3)c2)ccc1F
255	CS(=O)(=O)c1ccc(C(=O)N[C@H]2CC[C@H](CCN3CCC(c4cccc5c4CCO5)CC3)CC2)s1
139 to 141	Cc1coc2c1C(C)(O)C1=C(CCCC1C)C2=O (centres undefined)
50 to 51	O=C(Nc1ccc(OCCN2CCOCC2)c2ccccc12)c1cc(N2CCOCC2)ncn1
236 to 237	CC(C)OC(=O)Nc1ccc(C2=NNC(=O)CC2C)cc1 (centres undefined)
318 to 321	CCNC(=O)Nc1nc2cc(-c3cccnc3)cc(-c3nnc(C)o3)n2n1
193 to 195	O=C1CCc2c(-c3ccncc3)sc(-c3ccc(F)cc3)c21
95 to 97	CSC1=C(c2cc3ccccc3s2)N2CCN=C2S1
53 to 56	O=C(O)CN[C@H]1C[C@H](O)CO1 (relative stereo)
80 to 81	OCc1cc2c(F)ccc(Br)c2s1
75 to 76	CCOC(=O)c1ccccc1OC
237 to 239	CN(Cc1ccc(-c2ccc(O)c(Br)c2)cc1)C(=O)c1cn(C)c2ccccc12
187 to 189	CON(C)Cc1nc2c(N)nc3cc(-c4cccnc4)cnc3c2n1CC(C)(C)O
37 to 38	CCCCCCCCCCCCCCCC(=O)CC(=O)OCC
91 to 92	Cc1c(C)c2c(c(C)c1N)[C@H](c1ccc(C(C)C)cc1)[C@H](C)O2 (relative stereo)
130 to 132	C#CC[C@H](c1nc2cc(Cl)ccc2c(=O)n1Nc1ccccc1)N(CCCN1C(=O)c2ccccc2C1=O)C(=O)c1cccc(Cl)c1F
86 to 88	CC(=O)NC1C(NC(=NC(=O)OC(C)(C)C)NC(=O)OC(C)(C)C)C=C(C(=O)OCCCO)OC1C(O)C1COC(C)(C)O1 (centres undefined)

melting point [°C]	SMILES
122 to 124	CCCCOc1cc(C(=O)O)cc(N)c1-c1ccccc1
151 to 153	CC1CN(c2ccccn2)CCN1Cc1nc2ccccc2[nH]1 (centres undefined)
227	O=C(Nc1ccccc1S(=O)(=O)c1ccccc1)N[C@@H](Cc1ccc(NC(=O)c2c(Cl)cccc2Cl)cc1)C(=O)O
74 to 76	Cc1cc(Oc2c(Cl)cc(C(F)(F)F)cc2Cl)nn1C(=O)NCC1CCCO1 (centres undefined)
209 to 211	N#CCOc1c(-c2ccccc2)c(=O)[nH]c2cc(Cl)ccc12
114 to 115	COC(=O)C1CC(=O)Nc2ccccc2C1 (centres undefined)
85 to 86.5	CN(C)CCOc1ccc2c(c1)Cc1cc(OCCN(C)C)ccc1O2
152 to 154	CS(=O)(=O)Nc1ccc(Cn2ncc(Cl)c(Cl)c2=O)cc1
183 to 184	COc1ccc2c(OC(C)C)c(C(N)=O)ccc2c1
131 to 133	Nc1ccc(C(=O)C[N+](=O)[O-])c(Cl)c1
207 to 209	CCn1c(=O)c(-c2c(Cl)cccc2Cl)cc2cnc(N)nc21
125 to 128	Cc1oncc1C(=O)Nc1ccc(-n2nc(C(F)(F)F)cc2C2CC2)c(F)c1
239 to 240	O=C1SCC(O)=C1Cc1ccc(Cl)c(Cl)c1
220 to 221	COc1ccc(Cc2c(-c3ccc(OC(F)F)c(OC4CC4)c3)[nH]c3cn[nH]c(=O)c23)cn1
81.6 to 82.7	CC(C)(C)OC(=O)N[C@@H](Cc1ccccc1)C(=O)N[C@@H](Cc1ccc(O)c(I)c1)C(=O)OCc1ccccc1
146 to 147	O=C(c1ccc(O)cc1)c1ccc(OCCO)cc1
73 to 74	c1ccc(C2CCNCc3ccccc3O2)cc1 (centres undefined)
195 to 197	O=S(=O)(NC(=S)NC1CCCCC1)c1cnccc1NC1CCCCCC1
120 to 121	CCOc1cccc(CN2CCc3cc(O)ccc3C2)c1
135 to 138	Cc1noc2cc3c(cc12)C1(CO3)C(=O)N(CCC(C)C)c2ccccc21 (centres undefined)
150 to 152	O=C(CCn1ccnc1)N1c2ccccc2Sc2ccccc21
215 to 216	CN(C)c1ccc(-c2nc(Cl)c(CC(N)=O)n2Cc2ccccc2)cc1
65 to 68	CC(=O)NCC1CN(c2ccc(N3CCC(O)(C#N)C(C)(C)C3)c(F)c2)C(=O)O1 (centres undefined)
201 to 203	CN1CCN(C(=O)c2ccc(-c3cnc4c(c3)N(C(=O)c3cc(F)ccc3F)CCN4)cc2)CC1
57 to 62	COC(OC)C(C)Nc1cc(OCc2ccccc2)ccc1[N+](=O)[O-] (centres undefined)

melting point [°C]	SMILES
99 to 101	O=C(SCC1C(=O)OCC1c1ccc(Cl)cc1)c1ccccc1 (centres undefined)
131 to 133	O=C(C=Cc1ccccc1C(F)(F)F)C=Cc1ccccc1C(F)(F)F
163	Cc1cccc(Cl)c1S(=O)(=O)NC(=O)n1nc(Br)n(N(C)C)c1=O
88 to 90	CCCCN1C(C)=C(C(=O)OCC)C(c2cc([N+](=O)[O-])ccc2OCC(=O)OCC)C(C(=O)OCC)=C1C
63 to 66	COC(=O)c1sccc1-c1ccccc1
104 to 106	C#CCOC(=O)c1ccc(O)cc1O
159 to 162	O=C(CN1CCN(CC2CCn3c(nc4ccccc43)S2)CC1)N1CCCC1 (centres undefined)
215	O=c1[nH]c2ccc(S(=O)(=O)Nc3ccc(Cl)cc3Cl)cc2c(=O)o1
147	Cc1c2c(nc3ccccc13)CCN(C(=O)C(F)(F)F)CC2
239 to 245	Cc1ccc2c(N)c3c(nc2c1)CCSC3
213 to 214	CC(=O)NCC1CN(c2cc(F)c(N3CCN(C(=O)COC(=O)c4cccnc4)CC3)c(F)c2)C(=O)O1 (centres undefined)
182	CC1CC(C(=O)Nc2ccccc2)(C(=O)OC(C)(C)C)N(C(=O)CNC(=O)OC(C)(C)C)C1c1ccccc1 (centres undefined)
141 to 144	CC(C)(C)OC(=O)NCOc1ccccc1C(=O)O
169 to 171	CC(=O)SCC(Cc1ccccc1)C(=O)NC1(C(=O)O)CC1 (centres undefined)
102 to 104	O=C(CBr)c1ccc(OC2CCCCO2)cc1 (racemic)
285 to 287	C[C@@H]1CN(c2ccc3nc(-c4ccc(F)cc4)c(-c4ccnc5[nH]ccc45)n3n2)CCN1
108 to 110	CCOc1ccc2c(c1)CC(=O)N2C1CCCCO1 (centres undefined)
59 to 62	CC(C)(O)CCOc1c(-c2ccc(S(N)(=O)=O)cc2)cnn(-c2ccc(F)c(Cl)c2)c1=O
101 to 102	COc1ccc(C(=O)c2ccccc2C(F)(F)F)c(O)c1Cl
168 to 172	O=C(OCCN1CCOCC1)c1ccc(-c2n[nH]c3c2Cc2ccccc2-3)cc1
95 to 100	COc1ccc2c(c1)c(-c1cc3nccnc3[nH]1)cn2CCCN
86 to 87	CC(C)(O)[C@@H](N)c1cccc2ccccc12
78 to 80	CC1(c2ccc(OCc3ccccc3)c(C=O)c2)OCCO1
214 to 215	N=C(NS(=O)(=O)c1ccc(F)cc1)N1CC(c2ccccc2)C(c2ccc(Cl)cc2)=N1 (centres undefined)
